From ChEMBL document CHEMBL2413072, “Synthesis and in vitro anticancer studies of novel C-2 arylidene congeners of lantadenes” (2013)

Legend:
Format in all cases: functional
NCI-H23 [1] = experiment: Growth inhibition of human NCI-H23 cells assessed as cell growth at 10^-4 M by sulforhodamine B assay; conditions: read-out: Activity
M14 = experiment: Growth inhibition of human M14 cells by sulforhodamine B assay
SR [2] = experiment: Growth inhibition of human SR cells assessed as cell growth at 10^-4 M by sulforhodamine B assay; conditions: read-out: Activity
HL-60(TB) = experiment: Growth inhibition of human HL-60(TB) cells by sulforhodamine B assay
PC-3 [3] = experiment: Growth inhibition of human PC3 cells assessed as cell growth at 10^-6 M by sulforhodamine B assay; conditions: read-out: Activity
CCRF-CEM = experiment: Growth inhibition of human CCRF-CEM cells assessed as cell growth at 10^-8 M by sulforhodamine B assay; conditions: read-out: Activity
HCT-15 = experiment: Growth inhibition of human HCT15 cells assessed as cell growth at 10^-8 M by sulforhodamine B assay; conditions: read-out: Activity
UACC-62 = experiment: Growth inhibition of human UACC62 cells assessed as cell growth at 10^-8 M by sulforhodamine B assay; conditions: read-out: Activity
786-0 [4] = experiment: Growth inhibition of human 786-0 cells assessed as cell growth at 10^-6 M by sulforhodamine B assay; conditions: read-out: Activity
DU-145 = experiment: Growth inhibition of human DU145 cells assessed as cell growth at 10^-6 M by sulforhodamine B assay; conditions: read-out: Activity
SF-295 = experiment: Growth inhibition of human SF295 cells assessed as cell growth at 10^-4 M by sulforhodamine B assay; conditions: read-out: Activity
NCI-H460 = experiment: Growth inhibition of human NCI-H460 cells assessed as cell growth at 10^-4 M by sulforhodamine B assay; conditions: read-out: Activity
U-251 [5] = experiment: Growth inhibition of human U251 cells assessed as cell growth at 10^-7 M by sulforhodamine B assay; conditions: read-out: Activity
[6] = Growth inhibition of human HCC2998 cells assessed as cell growth at 10^-4 M by sulforhodamine B assay; conditions: HCC 2998, read-out: Activity
[7] = Growth inhibition of human HCC2998 cells assessed as cell growth at 10^-7 M by sulforhodamine B assay; conditions: HCC 2998, read-out: Activity
NCI-H23 [8] = experiment: Growth inhibition of human NCI-H23 cells by sulforhodamine B assay
OVCAR-8 [9] = experiment: Growth inhibition of human OVCAR8 cells assessed as cell growth at 10^-6 M by sulforhodamine B assay; conditions: read-out: Activity
PC-3 [10] = experiment: Growth inhibition of human PC3 cells assessed as cell growth at 10^-8 M by sulforhodamine B assay; conditions: read-out: Activity
[11] = Growth inhibition of human Hs 578T cells assessed as cell growth at 10^-4 M by sulforhodamine B assay; conditions: read-out: Activity
TK-10 [12] = experiment: Growth inhibition of human TK10 cells assessed as cell growth at 10^-7 M by sulforhodamine B assay; conditions: read-out: Activity
OVCAR-5 = experiment: Growth inhibition of human OVCAR5 cells assessed as cell growth at 10^-4 M by sulforhodamine B assay; conditions: read-out: Activity
A549 = experiment: Growth inhibition of human A549/ATCC cells by sulforhodamine B assay
CAKI-1 = experiment: Growth inhibition of human CAKI-1 cells assessed as cell growth at 10^-4 M by sulforhodamine B assay; conditions: read-out: Activity
T47D = experiment: Growth inhibition of human T47D cells assessed as cell growth at 10^-4 M by sulforhodamine B assay; conditions: read-out: Activity
OVCAR-3 = experiment: Growth inhibition of human OVCAR3 cells assessed as cell growth at 10^-8 M by sulforhodamine B assay; conditions: read-out: Activity
SK-MEL-2 = experiment: Growth inhibition of human SK-MEL-2 cells assessed as cell growth at 10^-8 M by sulforhodamine B assay; conditions: read-out: Activity
U-251 [13] = experiment: Growth inhibition of human U251 cells assessed as cell growth at 10^-6 M by sulforhodamine B assay; conditions: read-out: Activity
MCF7 [14] = experiment: Growth inhibition of human MCF7 cells assessed as cell growth at 10^-4 M by sulforhodamine B assay; conditions: read-out: Activity
OVCAR-8 [15] = experiment: Growth inhibition of human OVCAR8 cells assessed as cell growth at 10^-7 M by sulforhodamine B assay; conditions: read-out: Activity
SNB-19 [16] = experiment: Growth inhibition of human SNB19 cells assessed as cell growth at 10^-6 M by sulforhodamine B assay; conditions: read-out: Activity
SNB-19 [17] = experiment: Growth inhibition of human SNB19 cells by sulforhodamine B assay
TK-10 [18] = experiment: Growth inhibition of human TK10 cells by sulforhodamine B assay
SNB-75 = experiment: Growth inhibition of human SNB75 cells assessed as cell growth at 10^-8 M by sulforhodamine B assay; conditions: read-out: Activity
UACC-257 = experiment: Growth inhibition of human UACC257 cells assessed as cell growth at 10^-7 M by sulforhodamine B assay; conditions: read-out: Activity
786-0 [19] = experiment: Growth inhibition of human 786-0 cells assessed as cell growth at 10^-7 M by sulforhodamine B assay; conditions: read-out: Activity
SK-OV-3 = experiment: Growth inhibition of human SKOV3 cells assessed as cell growth at 10^-8 M by sulforhodamine B assay; conditions: read-out: Activity
MCF7 [20] = experiment: Growth inhibition of human MCF7 cells by sulforhodamine B assay
RXF 393 = experiment: Growth inhibition of human RXF393 cells assessed as cell growth at 10^-6 M by sulforhodamine B assay; conditions: read-out: Activity
SN12C = experiment: Growth inhibition of human SN12C cells by sulforhodamine B assay
SF-268 = experiment: Growth inhibition of human SF268 cells assessed as cell growth at 10^-4 M by sulforhodamine B assay; conditions: read-out: Activity
SR [21] = experiment: Growth inhibition of human SR cells assessed as cell growth at 10^-6 M by sulforhodamine B assay; conditions: read-out: Activity
[22] = read-out: LC50 (the source's name)
[23] = read-out: pLC50 (the source's name) (converted)

CC(C)=CC(=O)O[C@@H]1CC(C)(C)C[C@H]2C3=CC[C@@H]4[C@@]5(C)CCC(=O)C(C)(C)[C@@H]5CC[C@@]4(C)[C@]3(C)CC[C@@]12C(=O)O
growth at 100 µM (NCI-H23 [1]): -10%
GI50 (M14; read-out: GI50): 6.52 µM
CC50 (M14; [22]): 76.6 µM
TGI (M14; read-out: TGI): 25.2 µM
GI50 (M14; read-out: pGI50 (converted)): 6.46 µM
CC50 (M14; [23]): 75.9 µM
TGI (M14; read-out: pTGI (converted)): 25.1 µM
growth at 100 µM (SR [2]): -15%
GI50 (HL-60(TB); read-out: GI50): 2.21 µM
CC50 (HL-60(TB); [22]): > 100 µM
TGI (HL-60(TB); read-out: TGI): 5.38 µM
GI50 (HL-60(TB); read-out: pGI50 (converted)): 2.19 µM
CC50 (HL-60(TB); [23]): > 100 µM
TGI (HL-60(TB); read-out: pTGI (converted)): 5.37 µM
growth at 1 µM (PC-3 [3]): 56%
growth at 0.01 µM (CCRF-CEM): 104%
growth at 0.01 µM (HCT-15): 93%
growth at 0.01 µM (UACC-62): 102%
growth at 1 µM (786-0 [4]): 92%
growth at 1 µM (DU-145): 90%
growth at 100 µM (SF-295): -59%
growth at 100 µM (NCI-H460): -54%
growth at 0.1 µM (U-251 [5]): 90%
growth at 100 µM [6]: -68%
growth at 0.1 µM [7]: 96%
GI50 (NCI-H23 [8]; read-out: GI50): 3.96 µM
CC50 (NCI-H23 [8]; [22]): > 100 µM
TGI (NCI-H23 [8]; read-out: TGI): 51.9 µM
GI50 (NCI-H23 [8]; read-out: pGI50 (converted)): 3.98 µM
CC50 (NCI-H23 [8]; [23]): > 100 µM
TGI (NCI-H23 [8]; read-out: pTGI (converted)): 52.5 µM
growth at 1 µM (OVCAR-8 [9]): 79%
growth at 0.01 µM (PC-3 [10]): 96%
growth at 100 µM [11]: -10%
growth at 0.1 µM (TK-10 [12]): 93%
growth at 100 µM (OVCAR-5): -39%
GI50 (A549; read-out: GI50): 0.797 µM
CC50 (A549; [22]): > 100 µM
TGI (A549; read-out: TGI): 15.6 µM
GI50 (A549; read-out: pGI50 (converted)): 0.794 µM
CC50 (A549; [23]): > 100 µM
TGI (A549; read-out: pTGI (converted)): 15.5 µM
growth at 100 µM (CAKI-1): -2%
growth at 100 µM (T47D): 23%
growth at 0.01 µM (OVCAR-3): 104%
growth at 0.01 µM (SK-MEL-2): 94%
growth at 1 µM (U-251 [13]): 74%
growth at 100 µM (MCF7 [14]): 2%
growth at 0.1 µM (OVCAR-8 [15]): 96%
growth at 1 µM (SNB-19 [16]): 87%
GI50 (SNB-19 [17]; read-out: GI50): 4.25 µM
CC50 (SNB-19 [17]; [22]): > 100 µM
TGI (SNB-19 [17]; read-out: TGI): > 100 µM
GI50 (SNB-19 [17]; read-out: pGI50 (converted)): 4.27 µM
CC50 (SNB-19 [17]; [23]): > 100 µM
TGI (SNB-19 [17]; read-out: pTGI (converted)): > 100 µM
GI50 (TK-10 [18]; read-out: GI50): 7.02 µM
CC50 (TK-10 [18]; [22]): > 100 µM
TGI (TK-10 [18]; read-out: TGI): 49.6 µM
GI50 (TK-10 [18]; read-out: pGI50 (converted)): 7.08 µM
CC50 (TK-10 [18]; [23]): > 100 µM
TGI (TK-10 [18]; read-out: pTGI (converted)): 50.1 µM
growth at 0.01 µM (SNB-75): 90%
growth at 0.1 µM (UACC-257): 93%
growth at 0.1 µM (786-0 [19]): 99%
growth at 0.01 µM (SK-OV-3): 106%
GI50 (MCF7 [20]; read-out: GI50): 3.29 µM
CC50 (MCF7 [20]; [22]): > 100 µM
TGI (MCF7 [20]; read-out: TGI): > 100 µM
GI50 (MCF7 [20]; read-out: pGI50 (converted)): 3.31 µM
CC50 (MCF7 [20]; [23]): > 100 µM
TGI (MCF7 [20]; read-out: pTGI (converted)): > 100 µM
growth at 1 µM (RXF 393): 85%
GI50 (SN12C; read-out: GI50): 3.12 µM
CC50 (SN12C; [22]): > 100 µM
TGI (SN12C; read-out: TGI): 21.8 µM
GI50 (SN12C; read-out: pGI50 (converted)): 3.09 µM
CC50 (SN12C; [23]): > 100 µM
TGI (SN12C; read-out: pTGI (converted)): 21.9 µM
growth at 100 µM (SF-268): -38%
growth at 1 µM (SR [21]): 95%
